Entries after “also recorded” stand apart in the source; their conditions may differ.
How the values were obtained:
c-Rel = biological target: T1, c-Rel (Homo sapiens, UniProt Q04864); settings: cited from earlier work
T1 construct: host or cells: T cells
T1 sequence (Q04864 1-619): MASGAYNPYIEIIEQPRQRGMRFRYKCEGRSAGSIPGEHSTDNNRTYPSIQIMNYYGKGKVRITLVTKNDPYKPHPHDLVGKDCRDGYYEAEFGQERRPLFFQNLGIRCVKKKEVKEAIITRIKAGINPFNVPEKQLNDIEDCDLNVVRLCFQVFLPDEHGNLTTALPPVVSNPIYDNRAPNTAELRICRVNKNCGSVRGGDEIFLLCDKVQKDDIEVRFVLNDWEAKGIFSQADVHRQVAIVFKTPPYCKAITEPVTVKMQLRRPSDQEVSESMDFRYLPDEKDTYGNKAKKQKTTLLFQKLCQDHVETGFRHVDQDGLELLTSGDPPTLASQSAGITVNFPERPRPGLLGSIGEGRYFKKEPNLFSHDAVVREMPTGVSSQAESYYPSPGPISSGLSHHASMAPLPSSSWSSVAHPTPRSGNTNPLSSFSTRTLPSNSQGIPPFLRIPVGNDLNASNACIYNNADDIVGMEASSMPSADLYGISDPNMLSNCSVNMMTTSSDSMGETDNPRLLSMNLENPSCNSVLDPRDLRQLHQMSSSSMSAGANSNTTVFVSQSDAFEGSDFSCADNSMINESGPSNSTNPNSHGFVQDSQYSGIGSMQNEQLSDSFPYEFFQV

B16F1 melanoma cells [1] = assay: B16F1 melanoma growth, early treatment with PTXF or IT-603; format: in vivo, C57Bl/6 WT mice
Procedure: B16F1, B16F10 and CT-26 cells were obtained from the ATCC and grown in DMEM+10% FBS medium. BRAF^CAPten^−/− cells were originally derived from an in vivo melanoma induced by topical tamoxifen treatment of Ubc^cre-ERT2 BRAF^CA Pten^F/F, as described. All cell lines were periodically tested for murine pathogens. Cells were grown in DMEM supplemented with 10% FBS. When confluence reached 60-70%, cells were detached and washed in PBS1X. Fifty thousand cells diluted in 50 μL PBS1X were injected subcutaneously in the shaved abdomen of each mouse. Tumor growth was measured daily using a caliper.
Pentoxifylline (Sigma) powder was dissolved in PBS1X and sterile filtered prior to each injection. […] For the “curative” regimen, mice were treated daily from day 5-6 (when the tumor was visible and palpable) to day 11, following the same methods. IT-603 was reconstituted in DMSO and stored at −80° C. It then was diluted in PBS1X and sterile-filtered prior to each injection. […]
5×10^4 B16F1 or 5×10^5 CT-26 or BRAF^CAPten^−/− cells diluted in sterile PBS1X were injected subcutaneously into the shaved flank of each mouse. For metastasis experiments, 2.5×10^4 B16F10 cells were injected intravenously in the tail vein. […] Anti-PD-1 (RMP1-14), anti-PD-L1 (10F.9G2) and anti-CD8 (YTS.169-4) mAbs were obtained from BioXCell. Rat IgG isotype control was from R&D Systems. […] In FIG. 11A-11G, Balb/c mice harboring CT-26 tumors received a suboptimal dose of 100 μg of anti-PD-1.
C57BI/6 WT mice were injected subcutaneously with 5×10^4 B16F1 melanoma cells, and then injected with either PBS (control), pentoxifylline, or IT-603 (red arrows). Tumor growth was monitored daily.

p65 = settings: cited from earlier work
B16F10 cells = assay: B16F10 metastatic melanoma, lung foci; format: in vivo, C57Bl/6J mice; settings: B16F10 i.v.; early PTXF treatment
Procedure: 5×10^4 B16F1 or 5×10^5 CT-26 or BRAF^[…]^-/- cells diluted in sterile PBS1X were injected subcutaneously into the shaved flank of each mouse. For metastasis experiments, 2.5×10^4 B16F10 cells were injected intravenously in the tail vein. […] Anti-PD-1 (RMP1-14), anti-PD-L1 (10F.9G2) and anti-CD8 (YTS.169-4) mAbs were obtained from BioXCell. Rat IgG isotype control was from R&D Systems.

B16F1 melanoma cells [2] = assay: qPCR on total tumor RNA at D16, early PTXF treatment; format: in vivo, C57Bl/6J mice
Treg cells = assay: RNA-Seq of PTXF-treated Treg cells; format: cell-based, mice; settings: 500 μg/mL PTXF
Procedure: Total cells suspensions were then activated with 5 μg/mL plate-coated anti-mCD3, 1 μg/ml soluble anti-mCD28 (BioLegend) and 10 ng/mL mIL-2, overnight at 37 C. Treg cells were then washed for further use. Total RNA was extracted using a Qiagen Rneasy Mini Kit with DNase treatment. For qPCR, RNA was reverse transcribed by Superscript III (Invitrogen). cDNAs were used for PCR with SYBR Green reagents (Quanta Biosciences, Gaithersburg, Md.) on a C1000 Touch thermal cycler (Bio Rad, Hercules, Calif.). The data was normalized to GAPDH expression. Primers sequences can be sent under request. For RNA-sequencing, libraries were prepared using an Illumina TruSeq Library Kit and sequenced by an Illumina 2500 instrument. Upon sequencing, raw FASTQ files were aligned on the mm10 genome using STAR aligner with default parameters (Dobin et al., 2013). Aligned fragments were then counted and annotated using Rsamtools v3.2 and the TxDb.Mmusculus.UCSC.mm10.knownGene' version 3.1.2 transcript database respectively. Normalized FPKM (fragments per kilobase per million mapped reads) were obtained using the robust FPKM estimate function of DeSeq2 v1.10.1 after removing the batch effect using the ComBat function of the sva package v3.18.0. Differentially expressed genes were obtained using the DESeqResults function of the same package. All p-values were adjusted for multiple comparison using the Benjamini & Hochberg FDR algorithm. For gene set enrichment analysis, the GSEA software was used, and Molecular Signature Database (MSigDB) including the ImmuneSigDB (C7 collection)(Godec et al., 2016; Subramanian et al., 2005).

CC(=O)CCCCn1c(=O)c2c(ncn2C)n(C)c1=O [PTXF, 1-(5-oxohexyl)-3,7-dimethylxanthine]
levels of c-Rel activation in T cells in vitro (c-Rel): reduces the levels of c-Rel activation
size or composition of lymphoid tissues (B16F1 melanoma cells [1]; B16F1-bearing mice, 50 mg/kg PTXF): No observable differences
adverse events (B16F1 melanoma cells [1]; B16F1-bearing mice, 50 mg/kg PTXF, 50 mg/kg): no apparent adverse events; also recorded: No adverse effects of treatment were observed
pace of tumor growth (B16F1 melanoma cells [1]; B16F1, daily injections of 50 mg/kg PTXF vs PBS): significant reduction in the pace of tumor growth
tumor growth (tumor volume, monitored daily) (B16F1 melanoma cells [1]; B16F1 s.c., PTXF 50 mg/kg or IT-603 10 mg/kg on days 0, 2, 3, 4, 6 and 8, vs control vehicle): significantly reduced growth of the tumors
levels of p65 in T cells in vitro (p65): unchanged
total number of metastatic foci in lungs (B16F10 cells): significantly decreased
inflammatory response (activated T-cell markers and cytokines) in total tumors (B16F1 melanoma cells [2]): dramatic enhancement of the inflammatory response
increase of Ccl22 mRNA (B16F1 melanoma cells [2]; minor and non-significant): 1.2 ×
Foxp3 mRNA (Treg cells): unaffected
expression of Cbl-b (Treg cells): up-regulated
expression of Gzmb and Tgfb1 (Treg cells): decreased expression
expression of c-Rel mRNA (Treg cells): unaffected
expression of genome organizer Sat1 (Treg cells): up-regulated

From US10954300B2, “Use of pentoxifylline with immune checkpoint-blockade therapies for the treatment of melanoma” (THE TRUSTEES OF COLUMBIA UNIVERSITY IN THE CITY OF NEW YORK, priority 2015, dated 2021)
